According to patent US10765114B2, “4-amino-6-(pyridyl and 2-substitutedphenyl)-picolinates and 6-amino-2-(pyridyl and 2-substitutedphenyl)-pyrimidine-4-carboxylates and their use as herbicides” (Dow AgroSciences LLC, priority 2013, dated 2020):

Experiments:
[1] = tested on: LOLSS; assay: Post-Emergent Test III (Wheat and Barley); format: in vivo; settings: for GR50, LOLSS: effective dose for growth reduction of 50 percent; for GR50, LOLSS / GR80, LOLSS: probit analysis; for GR80, LOLSS: effective dose for growth reduction of 80 percent; for pest or weed control at 35 g/ha / pest or weed control at 70 g/ha / pest or weed control at 140 g/ha: post-emergence, 504 h, postemergence, read-out: Visual Growth Reduction (%) 21 Days After Application, LOLSS; for pest or weed control at 35 g/ha: 35 g ai/ha; for pest or weed control at 70 g/ha: 70 g ai/ha; for pest or weed control at 140 g/ha: 140 g ai/ha
Method in brief: (§1)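 Injury was rated visually on a 0 to 100 percent scale 21 days after treatment, relative to untreated plants, and probit analysis of multiple dose rates gave growth-reduction values. Plants at the second or third true leaf stage had been track-sprayed at 187 L/ha.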

[2] = tested on: test plant species in Wheat and Barley; assay: Post-Emergent Test III (Wheat and Barley), further species of Table 9; format: in vivo; settings: for Visual Growth Reduction (%) 21 Days After Application, CHEAL: CHEAL lambsquarters (Chenopodium album); for Visual Growth Reduction (%) 21 Days After Application, CHEAL / Visual Growth Reduction (%) 21 Days After Application, GALAP / Visual Growth Reduction (%) 21 Days After Application, STEME / Visual Growth Reduction (%) 21 Days After Application, VIOTR: post-emergent; for Visual Growth Reduction (%) 21 Days After Application, GALAP: GALAP cleavers (Galium aparine); for Visual Growth Reduction (%) 21 Days After Application, STEME: STEME common chickweed (Stellaria media); for Visual Growth Reduction (%) 21 Days After Application, VIOTR: VIOTR wild pansy (Viola tricolor)
Protocol: (§2) Seeds of the desired test plant species were planted in Sun Gro MetroMix® 306 planting mixture, which typically has a pH of 6.0 to 6.8 and an organic matter content of about 30 percent, in plastic pots with a surface area of 103.2 square centimeters (cm^2). When required to ensure good germination and healthy plants, a fungicide treatment and/or other chemical or physical treatment was applied. The plants were grown for 7-36 days in a greenhouse with an approximate 14 h photoperiod which was maintained at about 18° C. during the day and 17° C. during the night. Nutrients and water were added on a regular basis and supplemental lighting was provided with overhead metal halide 1000-Watt lamps as necessary. The plants were employed for testing when they reached the second or third true leaf stage.
(§3) A weighed amount, determined by the highest rate to be tested, of each test compound was placed in a 25 mL glass vial and was dissolved in 4 mL of a 97:3 v/v mixture of acetone and DMSO to obtain concentrated stock solutions. […] The concentrated stock solutions obtained were diluted with 20 mL of an aqueous mixture containing acetone, water, isopropyl alcohol, DMSO, Agri-Dex crop oil concentrate, and X-77 surfactant in a 48:39:10:1.5:1.5:0.02 v/v ratio to obtain spray solutions containing the highest application rates. Additional application rates were obtained by serial dilution of 12 mL of the high rate solution into a solution containing 2 mL of 97:3 v/v mixture of acetone and DMSO and 10 mL of an aqueous mixture containing acetone, water, isopropyl alcohol, DMSO, Agri-Dex crop oil concentrate, and X-77 surfactant in a 48:39:10:1.5:1.5:0.02 v/v ratio to obtain ½×, ¼×, ⅛× and 1/16× rates of the high rate. Compound requirements are based upon a 12 mL application volume at a rate of 187 liters per hectare (L/ha). Formulated compounds were applied to the plant material with an overhead Mandel track sprayer equipped with 8002E nozzles calibrated to deliver 187 L/ha over an application area of 0.503 square meters at a spray height of 18 inches (43 cm) above the average plant canopy height. Control plants were sprayed in the same manner with the solvent blank.
(§4) The treated plants and control plants were placed in a greenhouse as described above and watered by subirrigation to prevent wash-off of the test compounds. After 21 dAYS, the condition of the test plants as compared with that of the untreated plants was determined visually and scored on a scale of 0 to 100 percent where 0 corresponds to no injury and 100 corresponds to complete kill and presented as indicated in Table A.
(§5) By applying the well-accepted probit analysis as described by J. Berkson in Journal of the American Statistical Society, 48, 565 (1953) and by D. Finney in “Probit Analysis” Cambridge University Press (1952), herbicidal injury of a specific compound at various rates can be used to calculate GR10, GR20, GR50, GR80 and GR90 values, which are defined as growth reduction factors that correspond to the effective dose of herbicide required to provide plant growth reduction (GR) of 10 percent, 20 percent, 50 percent, 80 percent and 90 percent, respectively. Probit analysis was applied to data collected from multiple dose rates of individual compounds utilizing the procedures explained in the following examples. The analysis of those dose rates is captured in the following tables.

[3] = tested on: BRSSS; assay: Post-Emergent Test III (Wheat and Barley); format: in vivo; settings: for Visual Growth Reduction (%) 21 Days After Application, BRSSS: BRSSS oil seed rape (Brassica napus), post-emergent
Method in brief: as §1

[4] = tested on: LAMPU (purple deadnettle); assay: Post-Emergent Test III (Wheat and Barley); format: in vivo, Lamium purpureum; settings: for Visual Growth Reduction (%) 21 Days After Application, LAMPU: LAMPU purple deadnettle (Lamium purpureum), post-emergent
Protocol: as §2, §3, §4, §5

## COC(=O)c1nc(-c2ccc(Cl)c(F)c2OC)cc(N)c1Cl [Compound 20]
[1]
  GR50, LOLSS: >140 g ai/ha
  GR80, LOLSS: >140 g ai/ha
  pest or weed control at 35 g/ha: 0 to 29%
  pest or weed control at 70 g/ha: 0 to 29%
  pest or weed control at 140 g/ha: 30 to 44%

## COC(=O)c1nc(-c2ccc(Br)nc2)c(F)c(N)c1Cl [Compound 22, methyl 4-amino-6′-bromo-5-chloro-3-fluoro-[2,3′-bipyridine]-6-carboxylate]
[2]; 17.5 g ai/ha
  Visual Growth Reduction (%) 21 Days After Application, CHEAL: A (95-100)
  Visual Growth Reduction (%) 21 Days After Application, GALAP: D (60-74)
  Visual Growth Reduction (%) 21 Days After Application, STEME: F (30-44)
  Visual Growth Reduction (%) 21 Days After Application, VIOTR: A (95-100)
[2]; 35 g ai/ha
  Visual Growth Reduction (%) 21 Days After Application, CHEAL: A (95-100)
  Visual Growth Reduction (%) 21 Days After Application, GALAP: B (85-94)
  Visual Growth Reduction (%) 21 Days After Application, STEME: E (45-59)
  Visual Growth Reduction (%) 21 Days After Application, VIOTR: A (95-100)
[2]; 70 g ai/ha
  Visual Growth Reduction (%) 21 Days After Application, CHEAL: A (95-100)
  Visual Growth Reduction (%) 21 Days After Application, GALAP: A (95-100)
  Visual Growth Reduction (%) 21 Days After Application, STEME: D (60-74)
  Visual Growth Reduction (%) 21 Days After Application, VIOTR: A (95-100)
[2]; CHEAL, growth reduction of 50%, probit analysis, 21 days
  GR50, CHEAL: 2 g ai/ha
[2]; CHEAL, growth reduction of 80%, probit analysis, 21 days
  GR80, CHEAL: 6 g ai/ha
[2]; CHEAL, growth reduction of 90%, probit analysis, 21 days
  GR90, CHEAL: 11 g ai/ha
[2]; GALAP, growth reduction of 50%, probit analysis, 21 days
  GR50, GALAP: 11 g ai/ha
[2]; GALAP, growth reduction of 80%, probit analysis, 21 days
  GR80, GALAP: 24 g ai/ha
[2]; GALAP, growth reduction of 90%, probit analysis, 21 days
  GR90, GALAP: 36 g ai/ha
[2]; STEME, growth reduction of 50%, probit analysis, 21 days
  GR50, STEME: 28 g ai/ha
[2]; STEME, growth reduction of 80%, probit analysis, 21 days
  GR80, STEME: >140 g ai/ha
[2]; STEME, growth reduction of 90%, probit analysis, 21 days
  GR90, STEME: >140 g ai/ha
[2]; VIOTR, growth reduction of 50%, probit analysis, 21 days
  GR50, VIOTR: 4 g ai/ha
[2]; VIOTR, growth reduction of 80%, probit analysis, 21 days
  GR80, VIOTR: 7 g ai/ha
[2]; VIOTR, growth reduction of 90%, probit analysis, 21 days
  GR90, VIOTR: 9 g ai/ha
[3]; 17.5 g ai/ha
  Visual Growth Reduction (%) 21 Days After Application, BRSSS: D (60-74)
[3]; 35 g ai/ha
  Visual Growth Reduction (%) 21 Days After Application, BRSSS: B (85-94)
[3]; 70 g ai/ha
  Visual Growth Reduction (%) 21 Days After Application, BRSSS: B (85-94)
[3]; BRSSS, growth reduction of 50%, probit analysis, 21 days
  GR50, BRSSS: 4 g ai/ha
[3]; BRSSS, growth reduction of 80%, probit analysis, 21 days
  GR80, BRSSS: 20 g ai/ha
[3]; BRSSS, growth reduction of 90%, probit analysis, 21 days
  GR90, BRSSS: 46 g ai/ha
[4]; 17.5 g ai/ha
  Visual Growth Reduction (%) 21 Days After Application, LAMPU: A (95-100)
[4]; 35 g ai/ha
  Visual Growth Reduction (%) 21 Days After Application, LAMPU: A (95-100)
[4]; 70 g ai/ha
  Visual Growth Reduction (%) 21 Days After Application, LAMPU: A (95-100)
[4]; LAMPU, growth reduction of 50%, probit analysis, 21 days
  GR50, LAMPU: 1 g ai/ha
[4]; LAMPU, growth reduction of 80%, probit analysis, 21 days
  GR80, LAMPU: 6 g ai/ha
[4]; LAMPU, growth reduction of 90%, probit analysis, 21 days
  GR90, LAMPU: 11 g ai/ha

## Nc1c(Cl)c(C(=O)O)nc(-c2ccc(C(F)(F)F)nc2)c1Cl [Compound 33]
[1]
  GR50, LOLSS: >140 g ai/ha
  GR80, LOLSS: >140 g ai/ha
  pest or weed control at 35 g/ha: 0 to 29%
  pest or weed control at 70 g/ha: 0 to 29%
  pest or weed control at 140 g/ha: 30 to 44%

## Nc1c(F)c(-c2ccc(C3CC3)nc2)nc(C(=O)O)c1Cl [Compound 36, 4-amino-5-chloro-6′-cyclopropyl-3-fluoro-[2,3′-bipyridine]-6-carboxylic acid]
[1]
  GR50, LOLSS: 44 g ai/ha
  GR80, LOLSS: 131 g ai/ha
  pest or weed control at 35 g/ha: 45 to 59%
  pest or weed control at 70 g/ha: 45 to 59%

## COC(=O)c1nc(-c2ccc(Cl)c(F)c2OC)c(F)c(N)c1Cl [Compound 39, methyl 4-amino-3-chloro-6-(4-chloro-3-fluoro-2-methoxyphenyl)-5-fluoropicolinate]
[1]
  pest or weed control at 35 g/ha: 0 to 29%
  pest or weed control at 70 g/ha: 0 to 29%
  pest or weed control at 140 g/ha: 0 to 29%

## COC(=O)c1nc(-c2ccc(C3CC3)nc2)c(F)c(N)c1Cl [Compound 49]
[1]
  GR50, LOLSS: 15 g ai/ha
  GR80, LOLSS: 31 g ai/ha
  pest or weed control at 35 g/ha: 95 to 100%
  pest or weed control at 70 g/ha: 85 to 94%
  pest or weed control at 140 g/ha: 85 to 94%

## Cc1c(-c2ccc(C(F)(F)F)nc2)nc(C(=O)O)c(Cl)c1N [Compound 51, 4-amino-5-chloro-3-methyl-6′-(trifluoromethyl)-[2,3′-bipyridine]-6-carboxylic acid]
[1]
  pest or weed control at 35 g/ha: 0 to 29%
  pest or weed control at 70 g/ha: 0 to 29%

## COC(=O)c1nc(-c2ccc(C(F)(F)F)nc2)c(F)c(N)c1Cl [Compound 59, methyl 4-amino-5-chloro-3-fluoro-6′-(trifluoromethyl)-[2,3′-bipyridine]-6-carboxylate]
[1]
  GR50, LOLSS: >140 g ai/ha
  GR80, LOLSS: >140 g ai/ha
  pest or weed control at 35 g/ha: 0 to 29%
  pest or weed control at 70 g/ha: 30 to 44%

## Nc1c(F)c(-c2ccc(OC(F)F)nc2)nc(C(=O)O)c1Cl [Compound 66]
[1]
  GR50, LOLSS: >140 g ai/ha
  GR80, LOLSS: >140 g ai/ha
  pest or weed control at 35 g/ha: 0 to 29%
  pest or weed control at 70 g/ha: 0 to 29%
  pest or weed control at 140 g/ha: 30 to 44%

## COC(=O)c1nc(-c2ccc(OC(F)F)nc2)c(F)c(N)c1Cl [Compound 71]
[1]
  GR50, LOLSS: >140 g ai/ha
  GR80, LOLSS: >140 g ai/ha
  pest or weed control at 35 g/ha: 0 to 29%
  pest or weed control at 70 g/ha: 0 to 29%
  pest or weed control at 140 g/ha: 30 to 44%

## COC(=O)c1nc(-c2ccc(C(F)(F)F)nc2)c(Cl)c(N)c1Cl [Compound 83]
[1]
  GR50, LOLSS: 59 g ai/ha
  GR80, LOLSS: 99 g ai/ha
  pest or weed control at 35 g/ha: 0 to 29%
  pest or weed control at 70 g/ha: 60 to 74%
